In PubChem BioAssay AID2060507 (Molecular Pharmacology Branch, DTP, NCI, 2025):

Tested on: 519858-162-T-J1-PDC complex spheroid viability
Assay: Anticancer human tumor 519858-162-T-J1-PDC patient-derived colon adenocarcinoma cell line growth inhibition [GQUAD]
Conditions: for IC50: curve of first compound; for viability, T/C: stronger effect = lower value
Method in brief: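 Multi-cell-type spheroids of tumor cells with HUVEC and mesenchymal stem cells, treated with drug combinations. Concentrations descend in half-log steps from near clinical Cmax, or from 10 microM where Cmax is unknown; viability read-out.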

[1] = second compound 0.0316 µM, first compound 0.0316 µM
[2] = second compound 0.0316 µM, first compound 0.1 µM
[3] = second compound 0.0316 µM, first compound 0.316 µM
[4] = second compound 0.0316 µM, first compound 1 µM
[5] = second compound 0.0316 µM, first compound 3.16 µM
[6] = second compound 0.0316 µM, first compound 10 µM
[7] = second compound 0.1 µM, first compound 0.0316 µM
[8] = second compound 0.1 µM, first compound 0.1 µM
[9] = second compound 0.1 µM, first compound 0.316 µM
[10] = second compound 0.1 µM, first compound 1 µM
[11] = second compound 0.1 µM, first compound 3.16 µM
[12] = second compound 0.1 µM, first compound 10 µM
[13] = second compound 0.316 µM, first compound 0.0316 µM
[14] = second compound 0.316 µM, first compound 0.1 µM
[15] = second compound 0.316 µM, first compound 0.316 µM
[16] = second compound 0.316 µM, first compound 1 µM
[17] = second compound 0.316 µM, first compound 3.16 µM
[18] = second compound 0.316 µM, first compound 10 µM
[19] = second compound 1 µM, first compound 0.0316 µM
[20] = second compound 1 µM, first compound 0.1 µM
[21] = second compound 1 µM, first compound 0.316 µM
[22] = second compound 1 µM, first compound 1 µM
[23] = second compound 1 µM, first compound 3.16 µM
[24] = second compound 1 µM, first compound 10 µM
[25] = second compound 3.16 µM, first compound 0.0316 µM
[26] = second compound 3.16 µM, first compound 0.1 µM
[27] = second compound 3.16 µM, first compound 0.316 µM
[28] = second compound 3.16 µM, first compound 1 µM
[29] = second compound 3.16 µM, first compound 3.16 µM
[30] = second compound 3.16 µM, first compound 10 µM
[31] = second compound 10 µM, first compound 0.0316 µM
[32] = second compound 10 µM, first compound 0.1 µM
[33] = second compound 10 µM, first compound 0.316 µM
[34] = second compound 10 µM, first compound 1 µM
[35] = second compound 10 µM, first compound 3.16 µM
[36] = second compound 10 µM, first compound 10 µM
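Further: spheroids exposed to compounds for 7 days.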
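Wherever viability, T/C is given: 100% = DMSO vehicle control viability.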

Q: With `C=CC(=O)N1CCN(c2nc(=O)n(-c3c(C)ccnc3C(C)C)c3nc(-c4c(O)cccc4F)c(F)cc23)C(C)C1` (centres undefined) + Cc1cnc(CNC(=O)c2c(=O)c3ccc(N4CCCN(C)CC4)nc3n3c2sc2ccccc23)cn1 as the compound, how does the IC50 (second compound 0.0316 µM) read?
A: > 10 µM

Q: What about the IC50 (second compound 0.1 µM) of the same compound?
A: > 10 µM

Q: What about the IC50 (second compound 0.316 µM) of the same compound?
A: > 10 µM

Q: What about the IC50 (second compound 1 µM) of the same compound?
A: 2.44 µM

Q: And the IC50 (second compound 3.16 µM)?
A: < 0.0316 µM

Q: What about the IC50 (second compound 10 µM) of the same compound?
A: 0.0729 µM

Q: And the viability, T/C [1]?
A: 74.2%

Q: What about the viability, T/C [2] of the same compound?
A: 91.8%

Q: What about the viability, T/C [3] of the same compound?
A: 77.1%

Q: What about the viability, T/C [4] of the same compound?
A: 89.3%

Q: What about the viability, T/C [5] of the same compound?
A: 46.3%

Q: And the viability, T/C [6]?
A: 103%

Q: What about the viability, T/C [7] of the same compound?
A: 97%

Q: And the viability, T/C [8]?
A: 70.4%

Q: What about the viability, T/C [9] of the same compound?
A: 109%

Q: What about the viability, T/C [10] of the same compound?
A: 92.3%

Q: What about the viability, T/C [11] of the same compound?
A: 76.3%

Q: What about the viability, T/C [12] of the same compound?
A: 82.9%

Q: What about the viability, T/C [13] of the same compound?
A: 54.2%

Q: What about the viability, T/C [14] of the same compound?
A: 53%

Q: And the viability, T/C [15]?
A: 55.9%

Q: What about the viability, T/C [16] of the same compound?
A: 57%

Q: And the viability, T/C [17]?
A: 65.2%

Q: What about the viability, T/C [18] of the same compound?
A: 76.6%

Q: What about the viability, T/C [19] of the same compound?
A: 69.1%

Q: What about the viability, T/C [20] of the same compound?
A: 56.3%

Q: And the viability, T/C [21]?
A: 68.2%

Q: And the viability, T/C [22]?
A: 56.9%

Q: What about the viability, T/C [23] of the same compound?
A: 40.3%

Q: What about the viability, T/C [24] of the same compound?
A: 45.5%

Q: What about the viability, T/C [25] of the same compound?
A: 46.5%

Q: And the viability, T/C [26]?
A: 49.6%

Q: What about the viability, T/C [27] of the same compound?
A: 41.8%

Q: And the viability, T/C [28]?
A: 55.8%

Q: And the viability, T/C [29]?
A: 56%

Q: And the viability, T/C [30]?
A: 42.9%

Q: And the viability, T/C [31]?
A: 60%

Q: What about the viability, T/C [32] of the same compound?
A: 46.4%

Q: What about the viability, T/C [33] of the same compound?
A: 42.8%

Q: What about the viability, T/C [34] of the same compound?
A: 48.2%

Q: What about the viability, T/C [35] of the same compound?
A: 48.7%

Q: And the viability, T/C [36]?
A: 42.8%

Q: With `Cc1cccc(N(C)C(=O)C2C(O)CCN2c2nc(C)cc(C(F)(F)F)c2C#N)c1` (centres undefined) + Cc1cnc(CNC(=O)c2c(=O)c3ccc(N4CCCN(C)CC4)nc3n3c2sc2ccccc23)cn1 as the compound, how does the IC50 (second compound 0.0316 µM) read?
A: > 10 µM

Q: And the IC50 (second compound 0.1 µM)?
A: > 10 µM

Q: What about the IC50 (second compound 0.316 µM) of the same compound?
A: > 10 µM

Q: And the IC50 (second compound 1 µM)?
A: 1.98 µM

Q: And the IC50 (second compound 3.16 µM)?
A: 0.0342 µM

Q: And the IC50 (second compound 10 µM)?
A: 0.0762 µM

Q: And the viability, T/C [1]?
A: 87.7%

Q: What about the viability, T/C [2] of the same compound?
A: 70.2%

Q: And the viability, T/C [3]?
A: 62.9%

Q: What about the viability, T/C [4] of the same compound?
A: 75.9%

Q: And the viability, T/C [5]?
A: 70.7%

Q: And the viability, T/C [6]?
A: 81.6%

Q: What about the viability, T/C [7] of the same compound?
A: 67.2%

Q: And the viability, T/C [8]?
A: 72.2%

Q: What about the viability, T/C [9] of the same compound?
A: 76%

Q: And the viability, T/C [10]?
A: 62%

Q: What about the viability, T/C [11] of the same compound?
A: 50%

Q: And the viability, T/C [12]?
A: 78.8%

Q: What about the viability, T/C [13] of the same compound?
A: 82.5%

Q: What about the viability, T/C [14] of the same compound?
A: 79.8%

Q: What about the viability, T/C [15] of the same compound?
A: 59.8%

Q: What about the viability, T/C [16] of the same compound?
A: 52.8%

Q: And the viability, T/C [17]?
A: 65.5%

Q: And the viability, T/C [18]?
A: 49.3%

Q: What about the viability, T/C [19] of the same compound?
A: 71.6%

Q: And the viability, T/C [20]?
A: 62.1%

Q: And the viability, T/C [21]?
A: 52.4%

Q: And the viability, T/C [22]?
A: 56.1%

Q: And the viability, T/C [23]?
A: 50.5%

Q: What about the viability, T/C [24] of the same compound?
A: 44.2%

Q: And the viability, T/C [25]?
A: 48.9%

Q: And the viability, T/C [26]?
A: 50%

Q: What about the viability, T/C [27] of the same compound?
A: 45.5%

Q: What about the viability, T/C [28] of the same compound?
A: 36.2%

Q: And the viability, T/C [29]?
A: 46.1%

Q: What about the viability, T/C [30] of the same compound?
A: 40.9%

Q: What about the viability, T/C [31] of the same compound?
A: 50.6%

Q: And the viability, T/C [32]?
A: 54.8%

Q: What about the viability, T/C [33] of the same compound?
A: 44.4%

Q: And the viability, T/C [34]?
A: 41.2%

Q: What about the viability, T/C [35] of the same compound?
A: 43.2%

Q: What about the viability, T/C [36] of the same compound?
A: 43.4%
